In ChEMBL document CHEMBL1201862, “PubChem BioAssay data set” (2004):
Values joined by “and” are separate entries in the source; they are usually repeats but may differ in a detail not shown here. Equal values may be shown once. Active and inactive are the calls of the source.

How the values were obtained:
cells [1] = experiment: cells
Major prion protein = Major prion protein (Homo sapiens, UniProt P04156); format: functional, cell-based
[2] = inhibitors of PGC1a acetylation in cells, dose response, cell-based, cherry-picked samples (AID 720514); format: functional;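 also: potency may reflect raised or lowered acetylation signal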
Cytochrome P450 1A2 = target: T1, Cytochrome P450 1A2 (Homo sapiens, UniProt P05177);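 also: PubChem cytochrome P450 panel assay, CYP1A2 panel member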
T1 sequence (P05177 whole entry): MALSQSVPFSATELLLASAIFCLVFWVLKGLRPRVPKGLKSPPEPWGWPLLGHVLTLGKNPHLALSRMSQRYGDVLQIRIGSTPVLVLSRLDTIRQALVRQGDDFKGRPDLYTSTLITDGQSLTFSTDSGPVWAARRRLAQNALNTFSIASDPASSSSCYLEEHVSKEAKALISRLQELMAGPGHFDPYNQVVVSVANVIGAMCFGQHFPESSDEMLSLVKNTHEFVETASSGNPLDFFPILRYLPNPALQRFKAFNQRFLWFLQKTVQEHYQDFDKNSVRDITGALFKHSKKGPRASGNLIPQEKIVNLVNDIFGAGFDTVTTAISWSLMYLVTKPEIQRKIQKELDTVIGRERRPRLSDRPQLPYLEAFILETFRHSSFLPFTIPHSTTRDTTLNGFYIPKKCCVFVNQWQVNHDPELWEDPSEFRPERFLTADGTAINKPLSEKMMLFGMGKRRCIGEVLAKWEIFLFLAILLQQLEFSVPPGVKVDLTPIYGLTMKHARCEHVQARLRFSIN

Cytochrome P450 2C9 = Cytochrome P450 2C9 (Homo sapiens, UniProt P11712)
[3] = target: 1-phosphatidylinositol 4,5-bisphosphate phosphodiesterase gamma-1 (Homo sapiens, UniProt P19174); experiment: Counterscreen for inhibitors of phospholipase C isozymes (PLC-B3): Fluorescence-based biochemical high throughput dose response assay to identify inhibitors of phospholipase C isozymes (PLC-gamma1).
[4] = target: 1-phosphatidylinositol 4,5-bisphosphate phosphodiesterase beta-3 (Homo sapiens, UniProt Q01970); experiment: Fluorescence-based biochemical high throughput dose response assay to identify inhibitors of phospholipase C isozymes (PLC-B3).
fMet-Leu-Phe receptor = fMet-Leu-Phe receptor (Homo sapiens, UniProt P21462); experiment: FPR ligands, dose response (AID 519); format: functional
[5] = target: T2, Scavenger receptor class B member 1 (Mus musculus, UniProt Q61009); experiment: inhibitors of SR-BI-mediated HDL uptake, dose response, cell-based, ldlA[mSR-BI] CHO, DiI fluorescence, dry powder, set 10 (AID 624029); format: functional
T2 sequence (Q61009 whole entry): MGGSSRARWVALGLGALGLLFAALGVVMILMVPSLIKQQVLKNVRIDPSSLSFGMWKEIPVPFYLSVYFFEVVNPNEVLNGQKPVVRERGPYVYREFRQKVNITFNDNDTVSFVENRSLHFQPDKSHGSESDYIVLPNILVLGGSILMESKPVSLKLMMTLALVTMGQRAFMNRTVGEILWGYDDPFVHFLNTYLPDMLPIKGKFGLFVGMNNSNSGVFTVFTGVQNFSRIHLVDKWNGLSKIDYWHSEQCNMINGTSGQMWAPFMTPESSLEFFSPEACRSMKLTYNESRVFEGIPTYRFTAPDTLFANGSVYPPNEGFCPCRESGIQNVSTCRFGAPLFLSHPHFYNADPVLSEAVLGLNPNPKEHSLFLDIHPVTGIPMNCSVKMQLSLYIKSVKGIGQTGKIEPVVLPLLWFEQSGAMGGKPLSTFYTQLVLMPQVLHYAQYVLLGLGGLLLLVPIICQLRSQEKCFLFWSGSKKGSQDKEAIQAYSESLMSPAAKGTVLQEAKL

[6] = target: T2, Scavenger receptor class B member 1; experiment: inhibitors of SR-BI dependent HDL uptake, dose response, ldlA[mSR-BI] CHO cells, fluorescence plate reader, dry powder, set 9 (AID 623880); format: functional, cell-based
cells [7] = details: HEK293
cells [8] = format: functional, cell-based
[9] = target: T3, Trace amine-associated receptor 1 (Homo sapiens, UniProt Q96RJ0); experiment: Fluorescence-based cell-based high throughput dose response assay to identify agonists of the human trace amine associated receptor 1 (TAAR1).; format: functional
T3 sequence (Q96RJ0 whole entry): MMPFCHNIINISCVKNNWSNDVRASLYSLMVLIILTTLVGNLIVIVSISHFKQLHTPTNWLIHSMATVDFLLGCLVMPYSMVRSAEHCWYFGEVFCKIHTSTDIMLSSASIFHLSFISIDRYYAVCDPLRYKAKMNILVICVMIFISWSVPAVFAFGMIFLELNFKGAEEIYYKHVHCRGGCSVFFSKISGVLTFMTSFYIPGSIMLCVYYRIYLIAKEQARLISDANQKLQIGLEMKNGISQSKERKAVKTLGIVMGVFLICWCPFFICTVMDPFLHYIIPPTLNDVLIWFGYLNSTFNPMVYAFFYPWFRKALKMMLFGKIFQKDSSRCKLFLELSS

[10] = target: T3, Trace amine-associated receptor 1; experiment: Counterscreen for agonists of the human trace amine associated receptor 1 (hTAAR1): Fluorescence-based cell-based high throughput dose response assay to identify hTAAR1 agonist that also desensitize TAAR1 receptor response.; format: functional
cells [11] = format: functional, cell-based; remark: listed apart in the source
[12] = human group III sPLA2 inhibitors, dose response, biochemical, QFRET, IC50 (AID 743457);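 also: green fluorescence rise as the enzyme cleaves BODIPY PC-A2 in liposomes; potency for inhibition of the enzyme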
[13] = CEM21 lymphoblast cell cytotoxicity, dose response, cytotoxicity control for viral fusion inhibitor project, CellTiter-Glo luminescence, cherry-picked (AID 652042); format: functional, cell-based;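 also: potency for signal decrease meaning cytotoxicity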
[14] = off-target signal loss in HeLa-CEM21 co-culture – HeLa F-luc CTL cells, cherry-picked, counter-screen for HIV-1 Env fusion inhibitor project, dose response (AID 652040); format: functional, cell-based;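 also: potency for signal decrease marking cytotoxic or nonspecific inhibition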
[15] = inhibitors of clade B AD8 Env fusion, dose response, cell-based, cherry-pick (AID 652062); format: functional;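 also: luciferase signal from cell-cell fusion driven by HIV-1 clade B AD8 Env; potency is for inhibitors of fusion seen as a drop in luminescence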
[16] = ZM109 Env clade C HIV-1 fusion inhibitors, dose response, HeLa effector, CEM target cells, luciferase, cherry-pick (AID 652058); format: functional, cell-based
[17] = target: T4, Oxysterols receptor LXR-beta (Homo sapiens, UniProt P55055); format: functional, cell-based;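 also: agonist activity at LXR measured by a cell-based luminescence readout across a dose range, run as a counterscreen for daf-12 agonists; HEK293 cells with Gal4-LXR fusion and GAL4-driven luciferase reporter; potency for activation of Gal4-LXR reporter so compounds are agonists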
T4 sequence (P55055 whole entry): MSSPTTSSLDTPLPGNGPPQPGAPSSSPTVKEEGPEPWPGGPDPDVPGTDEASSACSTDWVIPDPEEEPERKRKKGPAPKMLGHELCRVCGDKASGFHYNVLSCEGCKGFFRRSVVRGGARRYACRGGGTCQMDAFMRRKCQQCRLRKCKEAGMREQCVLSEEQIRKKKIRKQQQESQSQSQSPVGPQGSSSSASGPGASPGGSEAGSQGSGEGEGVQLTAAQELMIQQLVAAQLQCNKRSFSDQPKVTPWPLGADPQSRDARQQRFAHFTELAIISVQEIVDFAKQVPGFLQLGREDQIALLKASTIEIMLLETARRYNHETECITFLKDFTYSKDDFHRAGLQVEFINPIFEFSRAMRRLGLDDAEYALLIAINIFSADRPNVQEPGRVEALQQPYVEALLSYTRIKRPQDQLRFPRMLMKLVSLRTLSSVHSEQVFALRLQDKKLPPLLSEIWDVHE

[18] = target: NAD-dependent protein deacylase sirtuin-5, mitochondrial (Homo sapiens, UniProt Q9NXA8); experiment: SIRT5 desuccinylase inhibitors, dose response, biochemical, fluorescence imaging, cherry-pick, set 5 (AID 720591);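 also: desuccinylation of succinyl peptide AMC substrate read as fluorescence after trypsin release; potency of inhibitors that lower fluorescence and may act on trypsin instead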
[19] = target: T5, Voltage-gated N-type calcium channel alpha-1B subunit/Amyloid beta A4 precursor protein-binding family A member 1 (Homo sapiens, UniProt Q00975+Q02410); format: protein assay
[20] = target: T6, Corticotropin-releasing factor receptor 2/Corticotropin-releasing factor-binding protein (Homo sapiens, UniProt P24387+Q13324); experiment: Dose Response confirmation of uHTS hits for small molecule antagonists of the CRF-binding protein and CRF-R2 receptor complex.; format: functional; details: read-out: IC50_Mean
T6 sequence (Q13324 whole entry): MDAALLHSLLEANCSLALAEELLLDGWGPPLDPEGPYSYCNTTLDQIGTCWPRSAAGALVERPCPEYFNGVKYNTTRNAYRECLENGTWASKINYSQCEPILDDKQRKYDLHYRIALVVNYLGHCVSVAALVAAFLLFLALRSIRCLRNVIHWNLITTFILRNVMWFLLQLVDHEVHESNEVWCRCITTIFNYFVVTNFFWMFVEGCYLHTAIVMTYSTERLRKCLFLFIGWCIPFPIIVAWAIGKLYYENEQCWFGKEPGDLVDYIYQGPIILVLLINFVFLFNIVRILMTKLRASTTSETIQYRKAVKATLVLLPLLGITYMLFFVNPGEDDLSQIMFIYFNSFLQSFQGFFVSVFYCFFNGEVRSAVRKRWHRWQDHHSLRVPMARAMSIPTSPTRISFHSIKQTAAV
T6 sequence (P24387 whole entry): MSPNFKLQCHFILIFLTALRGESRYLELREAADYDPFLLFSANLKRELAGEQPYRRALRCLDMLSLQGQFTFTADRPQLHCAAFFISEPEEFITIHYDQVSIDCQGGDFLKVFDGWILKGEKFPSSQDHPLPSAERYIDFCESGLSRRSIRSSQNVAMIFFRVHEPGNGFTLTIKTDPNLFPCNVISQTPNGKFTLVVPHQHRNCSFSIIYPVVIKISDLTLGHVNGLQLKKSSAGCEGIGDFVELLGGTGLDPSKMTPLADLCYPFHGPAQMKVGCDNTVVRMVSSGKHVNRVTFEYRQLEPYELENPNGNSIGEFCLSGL

[21] = target: T6, Corticotropin-releasing factor receptor 2/Corticotropin-releasing factor-binding protein; experiment: activators of CRF receptor 2 with binding protein – uHTS hits, confirmation (AID 602473); format: functional; details: read-out: EC50_Mean
Caspase-6 = Caspase-6 (Homo sapiens, UniProt P55212); experiment: human caspase-6 inhibitors, dose response, biochemical, VEID-R110 fluorescence, cherry-pick (AID 720632)
[22] = target: T5, Voltage-gated N-type calcium channel alpha-1B subunit/Amyloid beta A4 precursor protein-binding family A member 1; format: protein assay; remark: listed apart in the source
Cytochrome P450 2D6 = Cytochrome P450 2D6 (Homo sapiens, UniProt P10635);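 also: CYP2D6 member of a cytochrome P450 panel assay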
HEK293 = experiment: inhibitors of LMP1-driven NF-kB reporter, dose response, cell-based, HEK293, luciferase, cherry-pick (AID 588343); format: functional; details: Homo sapiens

## CCc1nc(SCC(=O)Nc2ccc(N(C)C)cc2)c2ccccc2n1
Cells [1]
  IC50: > 138 µM (inactive)
Major prion protein
  IC50: 4.47 µM (active)

## Cc1ccc(S(=O)(=O)N2CCCCC2C(=O)O)cc1 (configuration not stated)
[2]
  AC50: 17.6 µM (active)

## O=C(C[S+]([O-])c1cccc(Cl)c1)Nc1ccccc1Cl (configuration not stated)
Cytochrome P450 1A2
  AC50: 15.8 µM (inconclusive)
Cytochrome P450 2C9
  AC50: inconclusive
[3]
  IC50: > 122 µM (inactive)
[4]
  IC50: > 122 µM (inactive)

## CCn1cc(C(=O)NC2CCC(C)CC2)c(=O)c2cc(S(=O)(=O)N3CCCCC3)ccc21 (configuration not stated)
fMet-Leu-Phe receptor
  Ki: > 66.7 µM (inactive)

## C[C@H](C(=O)NC1CCCC1)N(C(=O)Cn1nnc(-c2ccc3c(c2)OCO3)n1)C1CCCCC1
[5]
  AC50: 12.1 nM (active)
[6]
  AC50: 0.015 µM (active)

## COc1cc(/C=C(\C#N)C(=O)NC(C)C)cc(Cl)c1O
Cells [7]
  AC50: 50.3 µM (active)

## c1ccc(CC/N=C2\CCCc3c2[nH]c2ccccc32)cc1
Cells [8]
  EC50: > 29.9 µM (inactive)
[9]
  EC50: 0.106 µM (active)
[10]
  IC50: 0.341 µM (active)
Cells [11]
  IC50: > 29.9 µM (inactive)

## O=C(NN=C(S)Nc1cccc(Cl)c1)c1ccccc1OC(F)F
[12]
  IC50: > 122 µM (inactive)

## N=c1nc2n(cc1F)C1OC(CO)C(O)C1O2 (configuration not stated)
[13]
  AC50: 17.9 µM (active)
[14]
  AC50: < 0.26 µM (active)
[15]
  AC50: 0.699 µM (active)
[16]
  AC50: < 0.26 µM (active)

## Brc1ccc(-c2noc(-c3ccccn3)n2)o1
[17]
  EC50: > 67.5 µM (inactive)

## CC(C)NC(=O)Nc1ccc2c(c1)C(=O)N([C@H](C)CO)C[C@@H](C)[C@H](CN(C)S(=O)(=O)c1ccc(Cl)cc1)O2
[5]
  AC50: 163 nM (active) and 121 nM (active)
[6]
  AC50: 0.0589 µM (active)

## COc1cc2c(cc1OC)-c1cc(Nc3ccc(C(=O)O)cc3)nc(=O)n1CC2
[18]
  AC50: 4.29 µM (active)
[19]
  IC50: > 50 µM (inactive)
[20]
  IC50: > 47.1 µM (inactive)
[21]
  EC50: > 53 µM (inactive)
Caspase-6
  AC50: 28.9 µM (active)
[22]
  IC50: 17.6 µM (active)

## Cc1cc(NC(=O)c2ccc3c(c2)OCO3)ccc1NC(=O)c1ccccc1
[3]
  IC50: > 122 µM (inactive)
[4]
  IC50: > 122 µM (inactive)

## Cn1cccc1CNCCc1ccccc1F
Cells [8]
  EC50: > 29.9 µM (inactive)
[9]
  EC50: 1.74 µM (active)
[10]
  IC50: 8.12 µM (active)
Cells [11]
  IC50: > 29.9 µM (inactive)

## COc1ccc(S(=O)(=O)N2CCCCC2)cc1NC(=O)CN(Cc1ccco1)Cc1ccco1
[13]
  AC50: 68.8 µM (active)

## Cc1ccc(NS(=O)(=O)c2cc(C(=O)NCc3ccccn3)ccc2Cl)cc1C
Cells [1]
  IC50: > 138 µM (inactive)
Major prion protein
  IC50: 13 µM (inactive)

## CCOC(=O)c1ccc(NC(=O)Nc2ccc3c4c(cccc24)C(=O)N3CC)cc1
Cytochrome P450 2D6
  AC50: 17.8 µM (inconclusive)
fMet-Leu-Phe receptor
  Ki: > 66.7 µM (inactive)

## NC(=S)NN=Cc1nccc2c(C(F)(F)C(F)(F)C(F)(F)F)cccc12
[12]
  IC50: 31.9 µM (inactive)
HEK293
  AC50: 0.643 µM (active)
